The record followed here is patent US20230099293A1, “OGA INHIBITOR COMPOUNDS” (priority 2019, published 2023).

The target of one data set is T1, hOGA (Homo sapiens, UniProt O60502).
T1 construct: endogenous in cells; host or cells: HEK293 cells inducible for P301L mutant human Tau (isoform 2N4R)
T1 sequence (O60502 1-916): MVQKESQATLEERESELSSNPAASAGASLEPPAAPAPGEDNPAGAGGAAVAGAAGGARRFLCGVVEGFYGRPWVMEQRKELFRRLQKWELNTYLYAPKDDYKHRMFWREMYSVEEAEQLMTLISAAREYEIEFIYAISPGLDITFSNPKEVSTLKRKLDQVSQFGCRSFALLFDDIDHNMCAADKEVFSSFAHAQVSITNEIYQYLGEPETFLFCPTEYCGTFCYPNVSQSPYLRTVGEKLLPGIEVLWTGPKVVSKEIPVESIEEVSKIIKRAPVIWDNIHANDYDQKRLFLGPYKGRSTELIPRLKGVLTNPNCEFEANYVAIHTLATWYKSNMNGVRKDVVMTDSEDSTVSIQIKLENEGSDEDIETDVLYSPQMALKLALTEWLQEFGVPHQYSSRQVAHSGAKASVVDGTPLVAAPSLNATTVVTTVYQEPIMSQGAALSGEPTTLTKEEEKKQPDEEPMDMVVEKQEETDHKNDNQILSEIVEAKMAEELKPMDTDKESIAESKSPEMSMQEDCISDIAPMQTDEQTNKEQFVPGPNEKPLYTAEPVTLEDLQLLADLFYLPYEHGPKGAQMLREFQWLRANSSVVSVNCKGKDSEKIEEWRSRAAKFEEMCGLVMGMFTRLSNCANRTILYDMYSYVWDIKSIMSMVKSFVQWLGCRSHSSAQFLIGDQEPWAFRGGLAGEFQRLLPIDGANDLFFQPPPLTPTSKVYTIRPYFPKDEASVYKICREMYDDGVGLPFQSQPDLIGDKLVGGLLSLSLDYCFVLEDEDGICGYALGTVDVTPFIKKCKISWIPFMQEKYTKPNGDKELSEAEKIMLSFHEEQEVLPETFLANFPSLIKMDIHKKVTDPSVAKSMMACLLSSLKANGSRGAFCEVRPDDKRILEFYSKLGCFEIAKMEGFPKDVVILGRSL
In words: OGA cellular assay (ICC detection of O-GlcNAcylated proteins in HEK293 cells inducible for P301L mutant human Tau). It is filed as cell-based. Also noted: Emax: dose or concentration left out as unconfirmed. As to conditions: for EC50: Cellular hOGA; for Emax: HEK293, read-out: Cellular Emax (%). As for the experimental part: HEK293 cells inducible for P301L mutant human Tau (isoform 2N4R) were established at Janssen. Thiamet-G was used for both plate validation (high control) and as reference compound (reference EC50 assay validation). OGA inhibition is evaluated through the immunocytochemical (ICC) detection of O-GlcNAcylated proteins by the use of a monoclonal antibody (CTD110.6; Cell Signaling, #9875) detecting O-GlcNAcylated residues as previously described (Dorfmueller et al. 2010 Chemistry & biology, 17:1250). Inhibition of OGA will result in an increase of O-GlcNAcylated protein levels resulting in an increased signal in the experiment. Cell nuclei are stained with Hoechst to give a cell culture quality control and a rough estimate of immediate compounds toxicity, if any. ICC pictures are imaged with a Perkin Elmer Opera Phenix plate microscope and quantified with the provided software Perkin Elmer Harmony 4.1.
Cells were propagated in DMEM high Glucose (Sigma, #D5796) following standard procedures. 2 days before the cell assay cells are split, counted and seeded in Poly-D-Lysine (PDL) coated 96-wells (Greiner, #655946) plate at a cell density of 12,000 cells per cm^2 (4,000 cells per well) in 100 μl of Assay Medium (Low Glucose medium is used to reduce basal levels of GlcNAcylation) (Park et al. 2014 The Journal of biological chemistry 289:13519). At the day of compound test medium from assay plates was removed and replenished with 90 μl of fresh Assay Medium. 10 μl of compounds at a 10 fold final concentration were added to the wells. Plates were centrifuged shortly before incubation in the cell incubator for 6 hours. DMSO concentration was set to 0.2%. Medium is discarded by applying vacuum. For staining of cells medium was removed and cells washed once with 100 μl D-PBS (Sigma, #D8537). From next step onwards unless other stated assay volume was always 50 μl and incubation was performed without agitation and at room temperature. Cells were fixed in 50 μl of a 4% paraformaldehyde (PFA, Alpha aesar, #043368) PBS solution for 15 minutes at room temperature. […] Before analysis samples were washed 2 times manually for 5 minutes in ICC base buffer.
Imaging is performed using Perkin Elmer Phenix Opera using a water 20× objective and recording 9 fields per well. Intensity readout at 488 nm is used as a measure of O-GlcNAcylation level of total proteins in wells. To assess potential toxicity of compounds nuclei were counted using the Hoechst staining. IC50-values are calculated using parametric non-linear regression model fitting. As a maximum inhibition Thiamet Gat a 200 uM concentration is present on each plate. In addition, a concentration response of Thiamet G is calculated on each plate.

Data set [1] addresses T2, recombinant human Meningioma Expressed Antigen 5 (MGEA5), also referred to as O-GlcNAcase (OGA) (Homo sapiens, UniProt O60502).
T2 construct: Full length OGA enzyme was purchased at OriGene (cat #TP322411); purchased OriGene TP322411
T2 sequence (O60502 1-916): T1 sequence (O60502 1-916)
The experiment in a line: OGA biochemical assay (inhibition of FM-GlcNAc hydrolysis, fluorescence). Conditions: for IC50: Enzymatic hOGA; for Emax: read-out: Enzymatic Emax (%). The procedure: The hydrolysis FM-GlcNAc (Marker Gene technologies, cat #M1485) results in the formation of β-D-N-glucosamineacetate and fluorescein. The fluorescence of the latter can be measured at excitation wavelength 485 nm and emission wavelength 538 nm. An increase in enzyme activity results in an increase in fluorescence signal. Full length OGA enzyme was purchased at OriGene (cat #TP322411). The enzyme was stored in 25 mM Tris.HCl, pH 7.3, 100 mM glycine, 10% glycerol at −20° C. […] The assay was performed in 200 mM Citrate/phosphate buffer supplemented with 0.005% Tween-20. 35.6 g Na2HIPO42H2O (Sigma, #C0759) were dissolved in 1 L water to obtain a 200 mM solution. […] The buffer to stop the reaction consists of a 500 mM Carbonate buffer, pH 11.0. […] OGA was used at a 2 nM concentration and FM-GlcNAc at a 100 uM final concentration. Dilutions were prepared in assay buffer.
Plates were pre-incubated for 60 min at room temperature and then 2 μl FM-GlcNAc substrate mix added. […] Plates were briefly centrifuged for 1 min at 1000 rpm and incubate at room temperature for 6 h. To stop the reaction 5 μl STOP buffer were added and plates centrifuge again 1 min at 1000 rpm. Fluorescence was quantified in the Thermo Scientific Fluoroskan Ascent or the PerkinElmer EnVision with excitation wavelength 485 nm and emission wavelength 538 nm.
For analysis a best-fit curve is fitted by a minimum sum of squares method. From this an IC50 value and Hill coefficient was obtained. High control (no inhibitor) and low control (saturating concentrations of standard inhibitor) were used to define the minimum and maximum values.

Where [2] appears, read: pEC50, Table 5, HEK293 P301L Tau cells, 6 hours incubation, O-GlcNAcylation readout.
The mark [3] stands for this setting: pIC50, Table 5, full length OGA 2 nM, FM-GlcNAc 100 uM, 6 h at room temperature.
Setting [4] is: pEC50, second table, averaged values over several runs, obtained after recalibration of the equipment.
[5] abbreviates: pIC50, second table, averaged values over several runs, obtained after recalibration of the equipment.
The mark [6] stands for this setting: Table 5, HEK293 P301L Tau cells, 6 hours incubation, O-GlcNAcylation readout.
Where [7] appears, read: second table, averaged values over several runs, obtained after recalibration of the equipment.
Setting [8] is: Table 5, full length OGA 2 nM, FM-GlcNAc 100 uM, 6 h at room temperature.

As to `Cc1n[nH]c(C)c1Nc1nccc2c1ncn2CC(=O)N(C)C` [Compound 38], the melting point worked out at 283.5 °C. The same compound displayed an EC50 on hOGA (setting [2]) of more than 1000 nM. In addition, at hOGA, the Emax turned out to be 6%. The concentration for half-maximal inhibition (IC50) in data set [1] (setting [3]) is 912 nM. Further, the Emax in data set [1] came to 90%.
The like results for `CN(C)C(=O)Cn1cnc2c(Nc3c(Cl)cc(F)cc3C(F)(F)F)nccc21` [Compound 24] were, in that order, 219.9 °C, 398 nM, 82%, 45.7 nM and 96%.
In turn, `CCCCn1ncc2c(Nc3c(Cl)cncc3Cl)nccc21` [Compound 67] gave an EC50 on hOGA (setting [2]) of more than 1000 nM. The Emax amounted to 6% at hOGA and 94% in data set [1]. Besides, the IC50 in data set [1] (setting [3]) is 513 nM.
On to `Cc1cc(OC(F)(F)F)cc(C)c1Nc1nccc2c1ncn2CC(=O)N(C)C` [Compound 9], for which the melting point was determined as 186.5 °C. Further, at hOGA (setting [2]), the half-maximal effective concentration (EC50) is 58.9 nM. Moreover, the Emax on hOGA was 82%. For the same compound, the IC50 in data set [1] (setting [3]) was 6.76 nM. In addition, in data set [1], the Emax turned out to be 99%.
Turning to `Cc1cc(F)c(F)c(C)c1Nc1nccc2c1ncn2CC(=O)N1CCC1` [Compound 79], the melting point is 214.8 °C. Also, the EC50 on hOGA (setting [4]) is more than 1000 nM. Also, in data set [1] (setting [5]), the IC50 was 251 nM.
The compound `Cc1cc(C(F)(F)F)cc(C)c1Nc1nccc2c1ncn2-c1ncc(F)cn1` [Compound 69] registered a melting point of 198.2 °C. Besides, the Emax on hOGA was determined as 6%. For the same compound, the “Cellular hOGA; pEC50” value on hOGA (setting [6]) was less than 6. Further, the “Cellular hOGA; pEC50” value on hOGA (setting [7]) was found to be 6.14. For the same compound, in data set [1] (setting [8]), the “Enzymatic hOGA; pIC50” value is recorded as 6.14. Moreover, in data set [1], the Emax was determined as 80%.
On to `CCCCn1ncc2c(Nc3c(C)cncc3C)nccc21` [Compound 68], for which the IC50 in data set [1] (setting [3]) was 7590 nM. Moreover, the Emax in data set [1] amounted to 61%.
The compound `Cc1c(-c2cccc(F)c2)nn(C)c1Nc1nccc2c1ncn2CC(=O)N(C)C` [Compound 40] came in with a melting point of 230 °C. For the same compound, the EC50 at hOGA (setting [2]) is more than 1000 nM. Moreover, the Emax on hOGA is 27%. In addition, the IC50 in data set [1] (setting [3]) was 105 nM. Besides, the Emax in data set [1] was 102%.
`Cc1cc(C(F)(F)F)cc(F)c1Nc1nccc2c1ncn2CC(=O)N(C)C1CC1` displayed a melting point of 219.8 °C.
On to `Cc1nn(-c2ccc(F)cn2)c(C)c1Nc1nccc2c1ncn2CC(=O)N(C)C` [Compound 32], for which the melting point turned out to be 256.6 °C. On hOGA (setting [2]), this compound returned a concentration for a half-maximal effect (EC50) of more than 1000 nM. Moreover, on hOGA, the Emax stood at 34%. Further, in data set [1] (setting [3]), the IC50 is 174 nM. Also, the Emax in data set [1] worked out at 100%.
Compound `Cc1cc(C(F)(F)F)cc(C)c1Nc1nccc2c1ncn2C1CCCCO1` (stereo not drawn) [Compound 73] registered a melting point of 169.8 °C. Also, on hOGA, the Emax was 42%. Also, the “Cellular hOGA; pEC50” value at hOGA (setting [6]) is less than 6. On hOGA (setting [7]), the “Cellular hOGA; pEC50” value was found to be 6.42. Besides, the “Enzymatic hOGA; pIC50” value in data set [1] (setting [8]) was 6.77. In addition, the maximum response (Emax) in data set [1] stood at 100%. The “Enzymatic hOGA; pIC50” value in data set [1] (setting [7]) is 6.91.
For the compound `CC(C)c1cc(C(F)(F)F)cc(F)c1Nc1nccc2c1ncn2CC(=O)N(C)C` [Compound 31], the melting point amounted to 191.4 °C. The EC50 on hOGA (setting [2]) is more than 1000 nM. At hOGA, the Emax came out at 36%. The concentration for half-maximal inhibition (IC50) in data set [1] (setting [3]) is 87.1 nM. Besides, the Emax in data set [1] came to 104%.
In turn, `[2H]C([2H])([2H])N(C)C(=O)Cn1cnc2c(Nc3c(C)cc(C(F)(F)F)cc3C)nccc21` displayed a melting point of 212.2 °C.
On to `Cc1cc(C(F)(F)F)cc(C)c1Nc1nccc2c1ncn2-c1ncn(C)c1C` [Compound 83], for which the EC50 at hOGA (setting [4]) is more than 1000 nM. Further, the IC50 in data set [1] (setting [5]) was 1170 nM.
`Cc1cc(C(F)(F)F)cc(F)c1Nc1nccc2c1ncn2CC(=O)N(C)CC(F)(F)F` showed a melting point of 238.3 °C.
In turn, `Cc1cc(C(F)(F)F)cc(Cl)c1Nc1nccc2c1ncn2CC(C)(F)F` [Compound 2] showed an EC50 at hOGA (setting [2]) of 95.5 nM. Also, the figures for the Emax (at hOGA; in data set [1]) were 87% and 99%, respectively. For the same compound, the IC50 in data set [1] (setting [3]) is 6.03 nM.
On hOGA (setting [2]), `Cc1cc(C(F)(F)F)nc(C)c1Nc1nccc2c1ncn2CC(=O)N1CCC1` [Compound 51] gave an EC50 of more than 1000 nM. In addition, the figures for the Emax (at hOGA; in data set [1]) were 15% and 82%, respectively. In data set [1] (setting [3]), the IC50 is 1480 nM.
At hOGA (setting [2]), `Cc1ccnc(C(C)C)c1Nc1nccc2c1ncn2CC(C)(F)F` [Compound 1, 1-(2,2-Difluoropropyl)-N-(2-isopropyl-4-methylpyridin-3-yl)-1H-imidazo[4,5-c]pyridin-4-amine] had an EC50 of 45.7 nM. For the same compound, the figures for the Emax (at hOGA; in data set [1]) were 81% and 101%, respectively. Moreover, the IC50 in data set [1] (setting [3]) was 5.13 nM.
Taken in the same sequence, the figures for `Cc1cc(F)cc(F)c1Nc1nccc2c1ncn2CC(=O)N(C)C` [Compound 26] were more than 1000 nM, 8%, 98% and 191 nM.
Take `CCCCn1cnc2c(Nc3c(Cl)cncc3Cl)nccc21` [Compound 58]: the IC50 in data set [1] (setting [3]) was 525 nM. Besides, the Emax in data set [1] amounted to 95%.
